Data taken from patent US6333313A, “Clinical use of oxytocin alone or in combination to treat bone disorders” (Board of Regents, The University of Texas System, priority 1999, dated 2001).
Starred links: 1 amine or outer side, 2 acyl side, 3 side chain; linkers in the order of their positions; H or OH if unused. Positions of bridges follow the written chain, without caps; N, C: chain ends. Non-standard residues stand in square brackets, D forms with d. Residues, ends and D or L forms follow the SMILES beside them. No end group written: not given here. X1 = O=C(CC1(S[*:2])CCCCC1)[*:1]; Orn = NCCC[C@H](N)C(=O)O

What was measured:
cortical bone [1] = settings: injections with mild exercise; old female rats; cited from earlier work
bone; uterus = settings: rats; compared with estradiol; cited from earlier work
bone formation [2] = settings: in vivo, high dose; cited from earlier work
OTR [3] = target: T1, OTR (Homo sapiens, UniProt P30559); experiment: Intracellular calcium levels, Saos-2 cells; type: cell-based; settings: 10 nM OT
T1 sequence (P30559 1-389): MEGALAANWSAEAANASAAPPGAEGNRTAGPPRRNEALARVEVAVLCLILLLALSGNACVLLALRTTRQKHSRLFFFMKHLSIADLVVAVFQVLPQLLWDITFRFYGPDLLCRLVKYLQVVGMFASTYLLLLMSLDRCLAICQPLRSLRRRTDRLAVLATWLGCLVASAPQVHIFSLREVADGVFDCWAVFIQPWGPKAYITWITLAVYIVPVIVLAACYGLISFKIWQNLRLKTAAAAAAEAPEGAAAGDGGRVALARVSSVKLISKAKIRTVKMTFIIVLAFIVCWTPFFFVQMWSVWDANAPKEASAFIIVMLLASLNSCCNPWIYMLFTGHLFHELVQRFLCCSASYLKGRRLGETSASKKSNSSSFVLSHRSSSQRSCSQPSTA
Procedure: (§1) FIG. 3A, FIG. 3B and FIG. 3C Intracellular calcium transients after 10 nM oxytocin treatment. (FIG. 3A.) Undifferentiated osteoblastic cells; (FIG. 3B.) differentiated osteoblastic cells; and (FIG. 3C.) Saos-2 cells. Cells were incubated at 37C and treated in the following manner; 100 nM OTA for 1 min, […], wash cells 3 times to remove bound antagonist, 10 min recovery, and then 10 nM OT treatment.
(§2) Cell Culture Conditions: Human osteosarcoma cells (Saos-2) cells were obtained from the ATCC (Rockville, Md.). Human osteoblasts (Cheng et al., 1994; Civitelli et al., 1993) were prepared from explants of cultured rib trabecular. These cells were grown in mineralizing media consisting of DMEM supplemented with 10% fetal bovine serum (FBS), 2% penicillin/streptomycin, dexamethasone (100 nM), ascorbate (50 μg/ml, and β3-glycerophosphate (10 μg/ml) in a humidified tissue culture incubator at 37C under an atmosphere of 5% CO2 and 95% air. These conditions accelerate the osteoblastic modulation of undifferentiated human trabecular bone cells and the production of osteogenic mineralizeable collagen matrix (Cheng et al., Civitelli et al., 1993). To retain undifferentiated osteoblastic phenotype, cells were cultured in the absence of dexamethasone, ascorbate, and β-glycerophosphate. […]

[4] = test system: Undifferentiated and differentiated osteoblastic cells; experiment: PGE2 levels in media of OT-stimulated cells (EIA); type: cell-based, human; settings: 100 nM OT, over nontreated controls
Procedure: FIG. 4A and FIG. 4B PGE2 levels in media of cells stimulated with 100 nM OT. (FIG. 4A.) Undifferentiated osteoblastic cells and (FIG. 4B.) differentiated osteoblastic cells. Each point is the mean +/- SE of triplicates. * indicates P<0.05 compared to matched basal control.
Prostaglandin E2 (PGE2) levels. PGE2 levels in media were measured using a PGE2 enzyme immunoassay (EIA) system from Amersham Life Sciences (Arlington Heights, Ill.) as previously described (Copland, et al., 1999). The sensitivity of the assay was 2.5 pg/ml with an intraassay coefficient of variation of 6.3% and the interassay coefficient of variation of 6.9%.
Undifferentiated and differentiated osteoblastic cells were tested to determine whether OT could stimulate PGE2 synthesis. Undifferentiated osteoblastic cells that were allowed to come to confluence and maintained for 2 weeks in either 10% FBS/DMEM or in mineralizing medium (differentiated osteoblast), synthesized and released PGE2 into the media in response to 100 nM OT (FIG. 4A and FIG. 4B, respectively).

OTR [5] = target: T1, OTR; experiment: Intracellular calcium levels, undifferentiated osteoblastic cells; type: cell-based; set-up: Undifferentiated or differentiated human trabecular bone cells with osteogenic capacity in primary culture express oxytocin receptors (OTRs); endogenous in cells; host or cells: primary human osteoblastic cells from rib trabecular bone explants (undifferentiated, or differentiated in mineralizing medium); settings: 10 nM OT
Procedure: as §1, §2

OTR [6] = target: T1, OTR; experiment: Intracellular calcium levels, differentiated osteoblastic cells; type: cell-based; set-up: Undifferentiated or differentiated human trabecular bone cells with osteogenic capacity in primary culture express oxytocin receptors (OTRs); endogenous in cells; host or cells: primary human osteoblastic cells from rib trabecular bone explants (undifferentiated, or differentiated in mineralizing medium); settings: 10 nM OT
Procedure: as §1, §2

bone formation [7] = settings: systemic administration; cited from earlier work
rat osteogenic cells = settings: in vitro; cited from earlier work
OTR [8] = target: T1, OTR; experiment: Whole cell OTR ligand binding, Scatchard analysis, undifferentiated osteoblastic cells; set-up: Undifferentiated or differentiated human trabecular bone cells with osteogenic capacity in primary culture express oxytocin receptors (OTRs); endogenous in cells; host or cells: primary human osteoblastic cells from rib trabecular bone explants (undifferentiated, or differentiated in mineralizing medium); settings: +/- SE
Procedure: (§3) Cell Culture Conditions: Human osteosarcoma cells (Saos-2) cells were obtained from the ATCC (Rockville, Md.). Human osteoblasts (Cheng et al., 1994; Civitelli et al., 1993) were prepared from explants of cultured rib trabecular. These cells were grown in mineralizing media consisting of DMEM supplemented with 10% fetal bovine serum (FBS), 2% penicillin/streptomycin, dexamethasone (100 nM), ascorbate (50 μg/ml, and β3-glycerophosphate (10 μg/ml) in a humidified tissue culture incubator at 37C under an atmosphere of 5% CO2 and 95% air. These conditions accelerate the osteoblastic modulation of undifferentiated human trabecular bone cells and the production of osteogenic mineralizeable collagen matrix (Cheng et al., Civitelli et al., 1993). To retain undifferentiated osteoblastic phenotype, cells were cultured in the absence of dexamethasone, ascorbate, and β-glycerophosphate. Osteoblast phenotype was verified by alkaline phosphatase activity and mineralization of the extracellular matrix using von Kossa staining. The cells were used on the first passage following initial plating.
(§4) Determination of OTR ligand binding: OTA was monoiodinated as previously described (Hinko and Soloff, 1992). […] The concentration of cellular DNA was determined in parallel, using the Hoechst dye H 33258 and a Hoefer DyNA Quant fluorometer according to the manufacturer's instructions.

OTR [9] = target: T1, OTR; experiment: Whole cell OTR ligand binding, Scatchard analysis, differentiated osteoblastic cells; set-up: Undifferentiated or differentiated human trabecular bone cells with osteogenic capacity in primary culture express oxytocin receptors (OTRs); endogenous in cells; host or cells: primary human osteoblastic cells from rib trabecular bone explants (undifferentiated, or differentiated in mineralizing medium)
Procedure: as §3, §4

OTR [10] = target: T1, OTR; experiment: Whole cell OTR ligand binding, Scatchard analysis, Saos-2 cells; set-up: Undifferentiated or differentiated human trabecular bone cells with osteogenic capacity in primary culture express oxytocin receptors (OTRs); endogenous in cells; host or cells: primary human osteoblastic cells from rib trabecular bone explants (undifferentiated, or differentiated in mineralizing medium)
Procedure: as §3, §4

bone formation [11] = settings: in vivo; cited from earlier work
rat osteoblastic cell = settings: combined with insulin-like growth factor-1; cited from earlier work
cortical bone [12] = settings: ovariectomized rats; cited from earlier work

Growth Hormone: growth hormone injections
formation and strength of cortical bone (cortical bone [1]): increase the formation and strength of cortical bone

Oc1ccc2c(c1)CC[C@H](c1ccccc1)[C@@H]2c1ccc(OCCN2CCCC2)cc1 [CP-336,156]
uterine-stimulating effects (bone; uterus): without the uterine-stimulating effects associated with estradiol

C=C1/C(=C\C=C2/CCC[C@]3(C)[C@@H]([C@H](C)CCCC(C)(C)O)CC[C@@H]23)C[C@@H](O)C[C@@H]1O [1,25 dihydroxyvitamin D3]
bone formation (bone formation [2]): stimulates bone formation

CC[C@H](C)[C@@H]1NC(=O)[C@H](Cc2ccc(O)cc2)NC(=O)[C@@H](N)CSSC[C@@H](C(=O)N2CCC[C@H]2C(=O)N[C@@H](CC(C)C)C(=O)NCC(N)=O)NC(=O)[C@H](CC(N)=O)NC(=O)[C@H](CCC(N)=O)NC1=O [OT, oxytocin]
rise in [Ca2+]i (OTR [3]): responded within seconds to OT treatment with a rise in [Ca^2+ ]i | increase in PGE2 synthesis ([4]; 15 and 30 minutes): 2 fold | increase in PGE2 synthesis ([4]; by 1 h of OT stimulation): 4-6 fold | rise in [Ca2+]i (OTR [5]): responded within seconds to OT treatment with a rise in [Ca^2+ ]i | rise in [Ca2+]i (OTR [6]): responded within seconds to OT treatment with a rise in [Ca^2+ ]i

IGF-1/IGF BP-3: insulin-like growth factor-1 combined with insulin-like growth factor binding protein-3
effect of IGF-1 on bone formation when combined with IGF BP-3 (bone formation [7]): potentiated

substance P: a neuropeptide with wide distribution in central and peripheral nervous system (RPKPQQFFGLM; ends and bridges not checked; UniProt P20366 58-68, looked up)
cell proliferation (rat osteogenic cells): increased cell proliferation in a dose dependent fashion

CC[C@H](C)[C@@H]1NC(=O)[C@H](Cc2ccc(OC)cc2)NC(=O)CC2(CCCCC2)SSC[C@@H](C(=O)N2CCC[C@H]2C(=O)N[C@@H](CCCN)C(=O)N[C@@H](Cc2ccc(O)cc2)C(N)=O)NC(=O)[C@H](CC(N)=O)NC(=O)[C@H]([C@@H](C)O)NC1=O [{^125 I]OTA] (Y(Me)ITNCP[Orn]Y-NH2; linker N-5 via X1)
Bmax (OTR [8]): 5.7+/-0.8 fmol/10 μg DNA | Kd (OTR [8]; read-out: apparent Kd): 0.132 ± 0.027 nM | Bmax (OTR [9]): 12.3+/-1.4 fmol/10 μg DNA | Kd (OTR [9]; read-out: apparent Kd): 0.175 ± 0.034 nM | Bmax (OTR [10]): 24.6+/-3.2 fmol/10 μg DNA | Kd (OTR [10]; read-out: apparent Kd): 0.15 ± 0.028 nM

B1: Osteogenic Protein-1: osteogenic protein-1 (protein, UniProt P18075 293-431, looked up)
Bone morphogenetic protein 7: STGSKQRSQNRSKTPKNQEALRMANVAENSSSDQRQACKKHELYVSFRDLGWQDWIIAPEGYAAYYCEGECAFPLNSYMNATNHAIVQTLVHFINPETVPKPCCAPTQLNAISVLYFDDSSNVILKKYRNMVVRACGCH
new bone formation (bone formation [11]): induces new bone formation | stimulation of rat osteoblastic cell differentiation and proliferation (rat osteoblastic cell): synergistic with insulin-like growth factor-1

B2: Parathyroid Hormone: parathyroid hormone (protein, UniProt P01270 32-115, looked up)
Parathyroid hormone: SVSEIQLMHNLGKHLNSMERVEWLRKKLQDVHNFVALGAPLAPRDAGSQRPRKKEDNVLVESHEKSLGEADKADVNVLTKAKSQ
modifications: Parathyroid hormone
femoral length and strength in cortical bone (cortical bone [12]): dose dependent increase
